Assay results published in patent US9364479B2, “Use of a receptor-type kinase modulator for treating polycystic kidney disease” (SYMPHONY EVOLUTION, INC., priority 2010, dated 2016).

How the values were obtained:
Oxytocin = molecular target: T1, Oxytocin (Homo sapiens, UniProt P30559); test: NovaScreen assay; type: binding; details: read-out: Inhibition, 10 μM XL-647
T1 construct: NovaScreen

Histamine, H2 = molecular target: T2, Histamine, H2 (Homo sapiens, UniProt P25021); test: NovaScreen assay; type: binding; details: read-out: Inhibition, 10 μM XL-647
T2 construct: NovaScreen

[1] = molecular target: T3, Glutamate, NMDA, Glycine (Stry-insens Site) (Homo sapiens, UniProt Q05586); test: NovaScreen assay; type: binding; details: read-out: Inhibition, 10 μM XL-647
T3 construct: NovaScreen

[2] = molecular target: T4, panel of pharmacological targets, including receptors, transporters, and enzymes; test: NovaScreen panel, overall statements; type: binding; details: muscarinic receptors, α2-adrenergic receptor and dopamine transporter
T4 construct: IC50 values; other: muscarinic receptors, α2-adrenergic receptor and dopamine transporter

[3] = test system: panel of pharmacological targets, including receptors, transporters, and enzymes; test: NovaScreen panel, overall statements; type: binding; details: single in vitro concentration of 10 μM
[4] = molecular target: T5, Muscarinic, M1 (Human Recombinant) (Homo sapiens, UniProt P11229); test: NovaScreen assay; type: binding
T5 construct: NovaScreen

PDGFRβ = PDGFRβ (Homo sapiens, UniProt P09619); test: In vitro kinase inhibition screen; type: biochemical
Protocol: (§1) Further screening was performed using the biochemical assay methods of Example 2. Additional description of the components and concentrations are summarized in Table 8, Table 9, and Table 10, below.

PAK2 = PAK2 (Homo sapiens, UniProt Q13177); test: In vitro kinase inhibition screen; type: biochemical
Protocol: as §1

CDK1 = CDK1 (Homo sapiens, UniProt P06493); test: In vitro kinase inhibition screen; type: biochemical
Protocol: as §1

ROCK II = ROCK II (Homo sapiens, UniProt O75116); test: In vitro kinase inhibition screen; type: biochemical
Protocol: as §1

SAPK4 = SAPK4 (Homo sapiens, UniProt O15264); test: In vitro kinase inhibition screen; type: biochemical
Protocol: as §1

Clk1 = Clk1 (Homo sapiens, UniProt P49759); test: In vitro kinase inhibition screen; type: biochemical
Protocol: as §1

in vivo = test: in vivo; design: species or system mice, rats, dogs, and monkeys
Protocol: The nonclinical Pharmacokinetics (PK) of XL-647 was studied in mice, rats, dogs, and monkeys. Animals were dosed either once or daily over several days, as described in Table 21 and 22 below. A summary of results can also be found in Tables 21 and 22 below. […] Mean tmax values were approximately 4 to 8 hours, and plasma terminal half-lives ranged from 9.41 to 20.9 hours.

[5] = test system: Corticotropin Releasing Factor, Non-selective; test: NovaScreen assay; type: binding
[6] = test system: Potassium Channel, Ca2+ Act., VI; test: NovaScreen assay; type: binding
[7] = type: in vitro ADME; details: human
Endothelin, ET-A (Human) = molecular target: T6, Endothelin, ET-A (Human) (Homo sapiens, UniProt P25101); test: NovaScreen assay; type: binding; details: read-out: Inhibition, 10 μM XL-647
T6 construct: NovaScreen

[8] = molecular target: T7, Platelet Activating Factor, PAF (Homo sapiens, UniProt P25105); test: NovaScreen assay; type: binding; details: read-out: Inhibition, 10 μM XL-647
T7 construct: NovaScreen

[9] = test system: PC-3 human tumor xenograft; test: PC-3 xenograft, tumor growth; type: in vivo; details: Mus musculus; qd × 28
Protocol: The response of tumors to treatment was determined by comparing the mean tumor weight of the treatment group with the appropriate control group. Percentage inhibition of tumor growth was determined with the following formula: Percentage inhibition=100×[1−(Xf−Xo)/(Yf−Yo)], where Xf and Yf are the mean tumor weights of the treatment and control groups, respectively, on day f, and Xo and Yo are the mean tumor weights of treatment and control groups respectively, on day zero (staged tumor weights after grouping)

[10] = test system: panel of 10 tyrosine kinases and 55 serine-threonine kinases; test: Kinase panel screen; type: biochemical; details: incl. insulin and IGF-1 receptor, CDKs, SAPKs, PKC isoforms

T5 sequence (P11229 whole entry): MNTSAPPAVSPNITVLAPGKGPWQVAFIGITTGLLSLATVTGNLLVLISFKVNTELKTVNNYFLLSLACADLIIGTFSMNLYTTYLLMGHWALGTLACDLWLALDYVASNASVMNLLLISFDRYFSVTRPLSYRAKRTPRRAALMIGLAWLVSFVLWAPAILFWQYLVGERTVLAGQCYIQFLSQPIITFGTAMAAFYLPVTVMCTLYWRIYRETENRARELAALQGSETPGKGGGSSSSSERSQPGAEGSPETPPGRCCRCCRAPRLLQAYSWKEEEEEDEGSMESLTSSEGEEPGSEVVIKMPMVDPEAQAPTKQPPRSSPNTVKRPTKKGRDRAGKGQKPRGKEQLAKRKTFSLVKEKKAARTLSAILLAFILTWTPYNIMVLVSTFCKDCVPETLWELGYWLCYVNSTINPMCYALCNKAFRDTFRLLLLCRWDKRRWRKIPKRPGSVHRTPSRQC
SAPK4, sequence (O15264 whole entry, species assumed): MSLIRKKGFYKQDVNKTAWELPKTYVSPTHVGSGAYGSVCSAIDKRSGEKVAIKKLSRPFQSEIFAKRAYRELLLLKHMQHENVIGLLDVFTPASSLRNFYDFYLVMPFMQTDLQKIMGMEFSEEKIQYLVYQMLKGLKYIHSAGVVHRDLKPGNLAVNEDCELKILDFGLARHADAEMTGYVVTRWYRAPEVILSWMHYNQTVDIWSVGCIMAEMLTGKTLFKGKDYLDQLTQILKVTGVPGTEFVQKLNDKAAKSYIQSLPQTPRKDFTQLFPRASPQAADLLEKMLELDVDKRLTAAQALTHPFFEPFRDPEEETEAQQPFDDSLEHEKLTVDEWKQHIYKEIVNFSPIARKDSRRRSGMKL
ROCK II, sequence (O75116 whole entry): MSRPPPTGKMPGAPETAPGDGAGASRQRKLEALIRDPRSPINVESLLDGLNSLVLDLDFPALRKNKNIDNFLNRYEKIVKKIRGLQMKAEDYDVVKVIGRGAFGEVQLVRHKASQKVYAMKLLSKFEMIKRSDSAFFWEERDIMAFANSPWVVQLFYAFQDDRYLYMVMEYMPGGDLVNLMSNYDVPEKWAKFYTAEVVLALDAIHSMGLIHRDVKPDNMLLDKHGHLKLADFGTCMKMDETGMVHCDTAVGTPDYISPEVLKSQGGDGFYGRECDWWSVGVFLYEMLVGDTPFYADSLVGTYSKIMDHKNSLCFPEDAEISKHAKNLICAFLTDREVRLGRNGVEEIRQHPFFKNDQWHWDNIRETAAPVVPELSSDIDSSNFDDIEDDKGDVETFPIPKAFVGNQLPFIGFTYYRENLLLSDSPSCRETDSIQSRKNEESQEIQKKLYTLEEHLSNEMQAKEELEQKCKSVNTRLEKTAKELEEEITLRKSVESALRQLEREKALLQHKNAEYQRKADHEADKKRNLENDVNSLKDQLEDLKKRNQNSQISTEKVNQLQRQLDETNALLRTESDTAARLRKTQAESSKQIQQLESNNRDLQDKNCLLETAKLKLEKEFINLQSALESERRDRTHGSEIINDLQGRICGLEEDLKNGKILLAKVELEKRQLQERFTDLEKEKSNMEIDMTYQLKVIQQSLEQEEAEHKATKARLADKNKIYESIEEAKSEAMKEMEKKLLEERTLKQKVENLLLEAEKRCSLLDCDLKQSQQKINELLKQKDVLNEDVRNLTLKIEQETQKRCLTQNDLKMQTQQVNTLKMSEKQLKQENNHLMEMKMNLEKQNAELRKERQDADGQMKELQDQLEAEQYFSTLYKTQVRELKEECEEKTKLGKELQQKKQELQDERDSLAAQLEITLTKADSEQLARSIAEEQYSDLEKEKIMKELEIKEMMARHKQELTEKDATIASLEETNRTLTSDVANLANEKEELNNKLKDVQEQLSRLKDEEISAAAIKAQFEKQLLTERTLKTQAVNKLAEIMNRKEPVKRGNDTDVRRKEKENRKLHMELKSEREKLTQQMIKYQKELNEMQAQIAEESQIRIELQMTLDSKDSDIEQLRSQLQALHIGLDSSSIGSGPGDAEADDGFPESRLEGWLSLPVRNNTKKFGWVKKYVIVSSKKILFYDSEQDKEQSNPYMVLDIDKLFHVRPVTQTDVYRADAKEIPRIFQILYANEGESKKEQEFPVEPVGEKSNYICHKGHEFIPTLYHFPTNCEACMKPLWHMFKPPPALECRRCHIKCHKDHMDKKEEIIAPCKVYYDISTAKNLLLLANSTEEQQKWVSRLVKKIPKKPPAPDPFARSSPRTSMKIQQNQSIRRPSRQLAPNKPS
Clk1, sequence (P49759 whole entry): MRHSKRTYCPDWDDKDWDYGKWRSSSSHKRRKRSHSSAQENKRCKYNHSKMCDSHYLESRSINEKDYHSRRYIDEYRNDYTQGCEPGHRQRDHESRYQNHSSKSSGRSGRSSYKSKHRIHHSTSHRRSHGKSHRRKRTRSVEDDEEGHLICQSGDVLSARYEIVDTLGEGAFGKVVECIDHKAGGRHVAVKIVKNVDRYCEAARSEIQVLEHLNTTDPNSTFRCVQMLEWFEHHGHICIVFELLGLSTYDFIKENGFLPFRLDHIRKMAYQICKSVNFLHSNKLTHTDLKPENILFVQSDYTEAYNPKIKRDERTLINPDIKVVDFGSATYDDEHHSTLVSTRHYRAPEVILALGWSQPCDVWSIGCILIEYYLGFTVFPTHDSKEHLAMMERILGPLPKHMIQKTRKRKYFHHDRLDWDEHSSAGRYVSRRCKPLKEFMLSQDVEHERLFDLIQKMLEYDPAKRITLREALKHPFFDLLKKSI
T2 sequence (P25021 whole entry): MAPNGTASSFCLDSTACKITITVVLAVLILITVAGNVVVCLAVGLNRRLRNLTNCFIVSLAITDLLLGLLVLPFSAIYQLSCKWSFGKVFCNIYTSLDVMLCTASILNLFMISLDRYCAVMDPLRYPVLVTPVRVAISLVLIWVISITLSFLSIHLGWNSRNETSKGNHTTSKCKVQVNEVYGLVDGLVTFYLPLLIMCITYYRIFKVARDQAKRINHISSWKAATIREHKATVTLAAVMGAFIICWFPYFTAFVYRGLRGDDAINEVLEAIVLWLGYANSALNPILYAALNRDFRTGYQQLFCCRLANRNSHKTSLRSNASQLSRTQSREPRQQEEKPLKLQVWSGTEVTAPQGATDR
CDK1, sequence (P06493 whole entry, species assumed): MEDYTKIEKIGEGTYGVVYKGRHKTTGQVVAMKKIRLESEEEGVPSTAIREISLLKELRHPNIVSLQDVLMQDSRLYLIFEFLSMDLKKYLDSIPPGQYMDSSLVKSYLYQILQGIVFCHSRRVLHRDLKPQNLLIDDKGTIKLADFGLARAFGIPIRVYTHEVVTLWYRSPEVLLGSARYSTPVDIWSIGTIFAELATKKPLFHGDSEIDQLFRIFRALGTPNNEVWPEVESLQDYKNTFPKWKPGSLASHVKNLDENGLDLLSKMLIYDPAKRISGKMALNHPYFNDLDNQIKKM
CDK1, sequence (P14635 whole entry partner, species assumed): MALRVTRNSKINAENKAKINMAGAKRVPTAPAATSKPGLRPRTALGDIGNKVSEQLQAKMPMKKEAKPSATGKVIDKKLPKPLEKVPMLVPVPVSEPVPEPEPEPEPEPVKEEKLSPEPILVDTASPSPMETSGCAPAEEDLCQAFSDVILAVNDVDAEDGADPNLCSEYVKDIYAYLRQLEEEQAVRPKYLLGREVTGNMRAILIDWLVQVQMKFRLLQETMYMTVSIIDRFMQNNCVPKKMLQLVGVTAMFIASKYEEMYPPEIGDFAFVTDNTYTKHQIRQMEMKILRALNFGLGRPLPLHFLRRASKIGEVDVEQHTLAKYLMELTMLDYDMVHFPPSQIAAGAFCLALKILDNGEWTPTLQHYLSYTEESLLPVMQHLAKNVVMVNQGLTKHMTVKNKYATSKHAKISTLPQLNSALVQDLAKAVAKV
T6 sequence (P25101 21-427): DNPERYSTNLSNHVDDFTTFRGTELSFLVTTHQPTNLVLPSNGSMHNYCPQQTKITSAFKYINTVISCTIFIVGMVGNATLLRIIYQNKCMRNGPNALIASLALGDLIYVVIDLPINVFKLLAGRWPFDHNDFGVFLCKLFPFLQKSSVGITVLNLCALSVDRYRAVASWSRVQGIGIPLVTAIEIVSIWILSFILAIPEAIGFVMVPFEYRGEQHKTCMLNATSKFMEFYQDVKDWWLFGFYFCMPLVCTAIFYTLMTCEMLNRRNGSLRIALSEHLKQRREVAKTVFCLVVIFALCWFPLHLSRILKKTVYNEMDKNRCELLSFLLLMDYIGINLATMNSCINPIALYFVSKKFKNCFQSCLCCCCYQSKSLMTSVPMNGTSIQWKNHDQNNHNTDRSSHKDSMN
T7 sequence (P25105 whole entry): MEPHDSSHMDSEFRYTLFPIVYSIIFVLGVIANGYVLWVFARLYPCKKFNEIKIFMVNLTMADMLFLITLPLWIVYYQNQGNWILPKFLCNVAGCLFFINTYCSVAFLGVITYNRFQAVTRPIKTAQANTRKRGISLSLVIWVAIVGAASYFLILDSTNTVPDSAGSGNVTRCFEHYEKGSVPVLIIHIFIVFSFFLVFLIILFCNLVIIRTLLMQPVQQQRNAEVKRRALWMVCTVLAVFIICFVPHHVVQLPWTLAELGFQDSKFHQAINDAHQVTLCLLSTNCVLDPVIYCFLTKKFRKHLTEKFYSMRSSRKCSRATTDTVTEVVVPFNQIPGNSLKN
T1 sequence (P30559 whole entry): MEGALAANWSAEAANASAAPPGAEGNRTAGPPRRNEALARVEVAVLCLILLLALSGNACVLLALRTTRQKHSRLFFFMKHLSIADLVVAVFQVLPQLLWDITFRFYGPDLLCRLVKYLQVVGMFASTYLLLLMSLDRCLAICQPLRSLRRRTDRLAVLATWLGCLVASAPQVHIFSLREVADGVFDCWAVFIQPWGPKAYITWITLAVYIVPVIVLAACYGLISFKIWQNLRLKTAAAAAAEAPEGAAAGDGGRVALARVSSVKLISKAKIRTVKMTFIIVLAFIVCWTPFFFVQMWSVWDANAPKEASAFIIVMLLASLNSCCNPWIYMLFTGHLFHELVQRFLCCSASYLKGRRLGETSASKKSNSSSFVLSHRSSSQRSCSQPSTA

Which results are given for `COc1cc2c(Nc3ccc(Cl)c(Cl)c3F)ncnc2cc1OC[C@@H]1C[C@@H]2CN(C)C[C@@H]2C1` [XL-647, N-(3,4-dichloro-2-fluorophenyl)-7-({[(3aR,5r,6aS)-2-methyloctahydrocyclopenta[c]pyrrol-5-yl]methyl}oxy)-6-(methyloxy)quinazolin-4-amine]?
inhibition at 10 µM (Oxytocin): -2.59%; inhibition at 10 µM (Histamine, H2): 45.7%; inhibition at 10 µM [1]: 6.46%; IC50 [2]: 1000 to 2700 nM; interaction with the panel, in words [3]: interact with very few of the pharmacological targets; IC50 [4]: 2330 nM; inhibition at 10 µM ([4]; read-out: Inhibition, 10 μM XL-647): 98.1%; IC50 (PDGFRβ): 346 ± 37 nM; IC50 (PAK2): > 1000 nM; IC50 (CDK1): > 1000 nM; IC50 (ROCK II): > 1000 nM; IC50 (SAPK4): > 1000 nM; IC50 (Clk1): > 10000 nM; accumulation in plasma (in vivo): < 2 fold; dose proportionality of AUC, in words (in vivo): approximately dose proportionally over lower dose ranges; bioavailability (in vivo; dog, po): 63 to 74%; Tmax (in vivo; mouse, rat, dog, monkey): 4 to 8 h; half-life (in vivo; mouse, rat, dog, monkey): 9.41 to 20.9 h; volumes of distribution (in vivo; mouse, rat, dog, monkey, iv): > 18 L/kg; oral bioavailability, in words (in vivo; po): orally bioavailable in mice, rats and dogs; Inhibition, 10 μM XL-647 [5]: 32.32%; Inhibition, 10 μM XL-647 [6]: 17.02%; protein bound [7]: 93-97.5%; inhibition at 10 µM (Endothelin, ET-A (Human)): -11.1%; inhibition at 10 µM [8]: 11.7%; ED50 [9]: 34 mg/kg; activity against kinase panel, in words [10]: inactive
